Where two headings read alike, the source gives them in different places.
Legend:
[1] = system: K562 (chronic myelogenous leukemia); test: Inhibition of tumor cell growth, K562; type: cell-based, human; details: Table 1; 72 hours
Experimental: (§1) In order to obtain information about the growth-inhibiting action on tumor cells, the inhibition of the growth of the following human tumor cells was determined: Burkitt's lymphoma (CA 46, ATCC No. CRL 1648), CCRF-CEM (acute lymphoblastic leukemia, ATCC No. CCL 119), K562 (chronic myelogenous leukemia, ATTC No. CCL 243), HeLa (epitheloid cervix carcinoma, ATCC No. CCL 2), MEXF 276L (melanoma), HT-29 (colon adenocarcinoma, ATCC No. HTB 38), KB-3-1 (human oral epidermoid carcinoma, CTCC No. CCL 17), KB-HU hydroxyurea-resistant, multidrug-resistant KB-C1 cells (Akiyama et al, Cell. Mol Genet., 11:117–126, 1985). Burkitt's, CCRF-CEM, HeLa and MEXF 276L cells were grown in RPMI 1640, HT-29 cells in McCoy's 5A medium. The KB cell lines were grown in Dulbecco's modified Eagle's medium (4,5 g glucose/l). To the cultures of KB-C1 cells 1 μg of colchicine/ml, and to the hydroxyurea-resistant KB-HU cells 1 mM hydroxyurea was added every other week. The media were supplemented with 10% fetal calf serum (except Burkitt's lymphoma cells with 15%), 2 mM glutamine, 50 units/ml penicillin and 50 μg/ml streptomycin. Inhibition of growth of HeLa, HT-29, KB and MEXF 276L cells was detected by the SRB-assay (Skehan et al, J. Natl Cancer Inst., 82:1107–1112, 1990). 3,000 - 10,000 cells in 200 μl medium were seeded per well into 96-well plates. Dose-response curves for CCRF-CEM and Burkitt's lymphoma cells were effected by an MTT-assay (Mosman, J. Immunol Methods, 65:55–63, 1983) from Boehringer Mannheim, Mannheim, Germany. Approximately 10,000 cells per 100 μl were seeded in 96-well plates. After an initial incubation of four hours, various substance concentrations were added, and the cells were incubated at 37° C. in a water-saturated atmosphere of 95% air and 5% CO2 for 72 hours. The substances were dissolved in dimethylsulfoxide (DMSO). The concentration of DMSO was 0.5%, and this was not toxic to the cells. Subsequently, the samples were fixed, washed, and the absorption was determined by a microplate reader.

[2] = system: HeLa (epitheloid cervix carcinoma); test: Inhibition of tumor cell growth, SRB-assay, HeLa; type: cell-based, human
[3] = system: HT-29 (colon adenocarcinoma); test: Inhibition of tumor cell growth, SRB-assay, HT-29; type: cell-based, human
Experimental: (§2) The KB cell lines were grown in Dulbecco's modified Eagle's medium (4,5 g glucose/l). To the cultures of KB-C1 cells 1 μg of colchicine/ml, and to the hydroxyurea-resistant KB-HU cells 1 mM hydroxyurea was added every other week. […] 3,000 - 10,000 cells in 200 μl medium were seeded per well into 96-well plates. […] Approximately 10,000 cells per 100 μl were seeded in 96-well plates. […] The substances were dissolved in dimethylsulfoxide (DMSO). […] Subsequently, the samples were fixed, washed, and the absorption was determined by a microplate reader.

[4] = system: Burkitt's lymphoma (CA 46, ATCC No. CRL 1648); test: Inhibition of tumor cell growth, MTT-assay, Burkitt's lymphoma; type: cell-based, human
Experimental: as §2

[5] = system: CCRF-CEM (acute lymphoblastic leukemia); test: Inhibition of tumor cell growth, MTT-assay, CCRF-CEM; type: cell-based, human; details: Table 2, 72 hours
MEXF 276L (melanoma) = test: Inhibition of tumor cell growth, SRB-assay, MEXF 276L; type: cell-based, human; details: Table 2, 72 hours
Experimental: as §2

[6] = system: multidrug-resistant KB-C1 cells; test: Inhibition of tumor cell growth, SRB-assay, KB-C1; type: cell-based, human; details: read-out: In vitro-activity against human tumor cell lines, KB-C1
Experimental: as §1

[7] = system: KB-HU hydroxyurea-resistant cells; test: Inhibition of tumor cell growth, SRB-assay, KB-HU; type: cell-based, human; details: Table 4, 72 hours, read-out: In vitro-activity against human tumor cell lines, KB-HU
Experimental: as §1

[8] = system: KB-3-1 (human oral epidermoid carcinoma); test: Inhibition of tumor cell growth, SRB-assay, KB-3-1; type: cell-based; details: read-out: In vitro-activity against human tumor cell lines, KB-3-1
Experimental: as §1

[9] = system: human tumor grafts (cell lines of FIG. 1); test: Colony forming assay (two-layer soft agar); type: cell-based; details: for IC50 / IC90 / Mean IC70: mean values of all cell lines tested in FIG. 1, continuous exposure 3 to 6 days
Experimental: An excellent correlation of drug response in patients and the colony forming assay has been found (Scholz et al, Eur. J. Cancer 25:901–905, 1990). Solid human tumors were grown as grafts in nude mice, removed from the latter, mechanically comminuted and subsequently incubated in an enzyme cocktail consisting of collagenase (1.2–1.8 U/ml), DNAse (375 U/ml) and hyaluronidase (29 U/ml) in RPMI 1640 medium at 37° C. for 30 minutes. The cell mixture was passed through sieves of 200 μm and 50 μm mesh size and washed thereafter twice with PBS (phosphate buffered saline). The percentage of live cells was determined using a Neubauer counting chamber and trypan blue staining.
The colony forming assay was performed according to a two-layer agar technique introduced and modified by Hamburger and Salmon (Hamburger and Salmon, Science, 197:461–463, 1977). The bottom layer consisted of 0.2 ml of Iscoves's Modified Dulbecco's medium with 20% fetal calf serum and 0.75% agar. 8×10^3 to 1.6×10^4 cells were added to the same medium and 0.4% agar and plated in 24-multiwell plates onto the base layer. One day after the plating (with continuous exposure), the substances were added in 0.2 ml medium. Each plate included six controls containing the solvent only, and the treated groups contained 6 concentrations of the substances, each in triplicate. Cultures were incubated at 37° C. and 7% CO2 in a water-saturated atmosphere for 3 to 6 days, depending on the doubling time of the tumor cells. At the time of maximum colony formation with a size of […], counts were performed with an automatic image analysis system. 24 h prior to counting, live colonies were stained with a sterile aqueous solution of 2-(4-iodophenyl)-3-(4-nitrophenyl)-5-phenyltetrazolium chloride (1 mg/ml, 100 μl/well). The results of the tests are given in FIG. 1, and in the following Table 5, respectively. […] Columns pointing towards the right show a slighter than average activity.

[10] = Table 2, 72 hours, read-out: IC50 Burkitts
[11] = Table 2, 72 hours, read-out: IC50 HeLa (converted)
[12] = Table 2, 72 hours, read-out: IC50 HT-29 (converted)
[13] = Table 4, 72 hours, read-out: In vitro-activity against human tumor cell lines, Burkitts
[14] = Table 4, 72 hours, read-out: In vitro-activity against human tumor cell lines, HeLa
[15] = Table 4, 72 hours, read-out: In vitro-activity against human tumor cell lines, HT-29

| SMILES | IC50 [4, 10] [nM] | IC50 [5] [nM] | IC50 [2, 11] [nM] | IC50 [3, 12] [nM] | IC50 (MEXF 276L (melanoma); read-out: IC50 MEXF276L) [nM] | also measured |
| --- | --- | --- | --- | --- | --- | --- |
| Cn1c(NN=C(Cc2ccccc2)c2ccccn2)nc2ccccc21 [Ia-33] |  |  |  |  |  | IC50 [1]: 120 nM; IC50 ([2]; Table 1, 72 hours, read-out: IC50 HeLa (converted)): 24 nM; IC50 ([3]; Table 1, 72 hours, read-out: IC50 HT-29 (converted)): 14100 nM |
| CC(=NNc1nc2ccccc2[nH]1)c1cccnn1 [Ib-1] | 840 | 980 | 1230 | 2060 | 2140 |  |
| CC(=NNc1nc2ccccc2o1)c1cccnn1 [Ib-3] | 1340 | 720 | 1250 | 1770 | 1960 |  |
| CC(=NNc1nc2ccccc2[nH]1)c1ccc(C)nn1 [Ib-4] | 1870 | 1300 | 1990 | 1960 | 2360 |  |
| CC(=NNc1nc2ccccc2o1)c1ccc(C)nn1 [Ib-5] | 840 | 460 | 1610 | 1040 | 2250 |  |
| CC(=NNc1nc2ccccc2[nH]1)c1ccncn1 [Ib-6, 1-(4-Pyrimidinyl)-1-ethanone-1-(1H-benzo[d]imidazol-2-yl)-hydrazone] |  |  |  |  |  | IC50 ([4]; Homo sapiens, CA46, Table 2, 72 hours, read-out: IC50 Burkitts): 560 nM; IC50 ([5]; Homo sapiens, CCRF-CEM): 410 nM; IC50 ([2]; Homo sapiens, HeLa, Table 2, 72 hours, read-out: IC50 HeLa (converted)): 880 nM; IC50 ([3]; Homo sapiens, HT-29, Table 2, 72 hours, read-out: IC50 HT-29 (converted)): 570 nM; IC50 (MEXF 276L (melanoma); Homo sapiens, MEXF276L): 910 nM |
| CC(=NNc1nc2ccccc2o1)c1ccncn1 [Ib-8] | 140 | 340 | 410 | 230 | 1300 |  |
| CC(=NNc1nc2ccccc2[nH]1)c1cc(C)ncn1 [Ib-9] | 390 | 660 | 890 | 360 | 1140 |  |
| CC(=NNc1nc2ccccc2o1)c1cc(C)ncn1 [Ib-10] | 40 | 220 | 210 | 120 | 1220 |  |
| CC(=NNc1nc2ccccc2[nH]1)c1nccnc1C [Ib-14] | 3370 | 2170 | 3530 | 2230 | 4240 |  |
| CC(=NNc1nc2ccccc2o1)c1nccnc1C [Ib-15] | 910 | 1300 | 1870 | 2150 | 5380 |  |
| CC(=NNc1nc2ccccc2[nH]1)c1cnc(C)cn1 [Ib-16] | 1220 | 840 | 1490 | 880 | 2000 |  |
| CC(=NNc1nc2ccccc2o1)c1cnc(C)cn1 [Ib-17] | 150 | 620 | 370 | 280 | 1660 |  |
| CC(=NNc1nc2ccccc2o1)c1ccc2ccccc2n1 [Ib-19] | 5490 | 7040 | 4530 | 7760 | > 10000 |  |
| CC(=NNc1nc2ccccc2o1)c1nccc2ccccc12 [Ib-21] | 200 | 350 | 340 | 1930 | 1560 |  |
| CC(=NNc1nc2ccccc2[nH]1)c1ncccn1 [Ib-25] | 220 | 200 | 630 | 420 | 960 |  |
| CC(=NNc1nc2ccccc2o1)c1ncccn1 [Ib-27] | 30 | 130 | 180 | 270 | 700 |  |
| CC(=NNc1nc2ccccc2n1C)c1cc(Cl)ccn1 [Id-4, 1-(4-Chloro-2-pyridyl)-1-ethanone-1-(1-methyl-1H-benzo[d]imidazol-2-yl)-hydrazone] |  |  |  |  |  | IC50 ([4]; Homo sapiens, CA46, Table 4, 72 hours, read-out: In vitro-activity against human tumor cell lines, Burkitts): 4 nM; IC50 ([6]; Homo sapiens, KBC-1, Table 4, 72 hours): 90 nM; IC50 ([2]; Homo sapiens, HeLa, Table 4, 72 hours, read-out: In vitro-activity against human tumor cell lines, HeLa): 170 nM; IC50 ([7]; Homo sapiens): 270 nM; IC50 ([3]; Homo sapiens, HT-29, Table 4, 72 hours, read-out: In vitro-activity against human tumor cell lines, HT-29): 520 nM; IC50 ([8]; Homo sapiens, KB 3-1, Table 4, 72 hours): 71 nM; IC50 ([9]; Homo sapiens): 301 nM; IC90 ([9]; Homo sapiens): 4290 nM; tumor type selectivity ([9]; colony forming assay, IC70 pattern, FIG. 1): selectivity for colon, breast, ovarian, and uterus tumors; Mean IC70 [9]: 956 nM |
| CC(=NNc1nc2ccccc2n1C)c1cccc(Cl)n1 [Id-5] |  |  |  |  |  | IC50 [4, 13]: 12 nM; IC50 ([6]; Table 4, 72 hours): 30 nM; IC50 [2, 14]: 190 nM; IC50 [7]: 20 nM; IC50 [3, 15]: 320 nM; IC50 ([8]; Table 4, 72 hours): 7 nM; IC50 [9]: 3300 nM; IC90 [9]: 9380 nM; Mean IC70 [9]: 5740 nM |
| CC(=NNc1nc2ccccc2n1C)c1ncccc1N(C)C [Id-11] |  |  |  |  |  | IC50 [4, 13]: 2 nM; IC50 ([6]; Table 4, 72 hours): 60 nM; IC50 [2, 14]: 20 nM; IC50 [7]: 240 nM; IC50 [3, 15]: 160 nM; IC50 ([8]; Table 4, 72 hours): 8 nM; IC50 [9]: 137 nM; IC90 [9]: 2900 nM; Mean IC70 [9]: 397 nM |
| CC(=NNc1nc2ccccc2n1C)c1cc(-c2ccccc2)ccn1 [Id-15] |  |  |  |  |  | IC50 [4, 13]: 30 nM; IC50 ([6]; Table 4, 72 hours): 230 nM; IC50 [2, 14]: 40 nM; IC50 [7]: 120 nM; IC50 [3, 15]: 50 nM; IC50 ([8]; Table 4, 72 hours): 140 nM; IC50 [9]: 429 nM; IC90 [9]: 5670 nM; Mean IC70 [9]: 1017 nM |
| CC(=NNc1nc2ccccc2n1C)c1ccc(-c2ccccc2)cn1 [Id-16] |  |  |  |  |  | IC50 [4, 13]: 30 nM; IC50 ([6]; Table 4, 72 hours): 180 nM; IC50 [2, 14]: 180 nM; IC50 [7]: 190 nM; IC50 [3, 15]: 250 nM; IC50 ([8]; Table 4, 72 hours): 250 nM; IC50 [9]: 965 nM; IC90 [9]: 7450 nM; Mean IC70 [9]: 2084 nM |

— patent US7112680B2, “Heterocyclic hydrazones for use as anti-cancer agents” (Austria Wirtschaftsservice Gesellschaft MIT Beschrankter …, priority 2000, dated 2006)
